Reference: DBAASP
Converted amounts (≈) assume the structure as drawn.

Tests used:
Test in all cases: ≥ marks a high value that may be exact or a test limit, other limits are often not marked, values filed in µg/mL are converted to µM
[1] = tested on: Candida albicans NCTC 3179
[2] = tested on: Escherichia coli ATCC 25922
[3] = tested on: Staphylococcus aureus ATCC 25923
[4] = tested on: Streptococcus pyogenes GAS M1T1
Escherichia coli BL21 = tested on: Escherichia coli BL21
Pseudomonas syringae = tested on: Pseudomonas syringae
[5] = tested on: Xanthomonas axonopodis pv. phaseoli ATCC 9563
[6] = tested on: Pseudomonas aeruginosa PAO1
Escherichia coli UB1005 = tested on: Escherichia coli UB1005
[7] = tested on: Pseudomonas aeruginosa ATCC 27853
[8] = tested on: Staphylococcus epidermidis ATCC 12228
[9] = tested on: Salmonella typhimurium ATCC 7731
[10] = tested on: Enterococcus faecalis ATCC 29212
[11] = tested on: Salmonella enterica subsp. enterica serovar Pullorum C79-13
[12] = tested on: Staphylococcus aureus ATCC 43300
[13] = tested on: Bacillus subtilis CMCC 63501
[14] = tested on: Staphylococcus aureus ATCC 29213
[15] = tested on: Lacticaseibacillus rhamnosus 1.9021
[16] = tested on: Lacticaseibacillus rhamnosus 1.0936
[17] = tested on: Salmonella enterica subsp. enterica serovar Choleraesuis CVCC 503
Escherichia coli K88 = tested on: Escherichia coli K88
[18] = tested on: Lacticaseibacillus rhamnosus 1.0911
[19] = tested on: Streptococcus agalactiae BNCC 185941
[20] = tested on: Lacticaseibacillus rhamnosus 8014
[21] = tested on: Salmonella enterica subsp. enterica serovar Typhimurium ATCC 14028
[22] = tested on: Escherichia coli O157:H7 CICC 21530
[23] = tested on: Candida parapsilosis CGMCC 2.3989
Escherichia coli 1005 = tested on: Escherichia coli 1005
[24] = tested on: Salmonella enterica subsp. enterica serovar Pullorum ATCC 7913
[25] = tested on: Candida tropicalis CGMCC 2.1975
Candida albicans = tested on: Candida albicans
[26] = tested on: Candida krusei CGMCC 2.1857

CC[C@H](C)[C@H](NC(=O)[C@@H](NC(=O)[C@H](Cc1ccccc1)NC(=O)CNC(=O)[C@@H](NC(=O)[C@H](CC(N)=O)NC(=O)[C@H](C)N)C(C)C)C(C)C)C(=O)N[C@@H](CCC(N)=O)C(=O)N[C@@H](CC(C)C)C(=O)N[C@@H](CCC(N)=O)C(=O)N[C@@H](C)C(=O)N[C@@H](CCCN=C(N)N)C(=O)N[C@@H](CC(C)C)C(=O)N[C@@H](CCCN=C(N)N)C(=O)NCC(=O)N[C@@H](Cc1ccccc1)C(=O)N[C@@H](CC(C)C)C(=O)N[C@H](C(=O)N[C@@H](CCCN=C(N)N)C(=O)N[C@@H](CCC(N)=O)C(=O)N[C@@H](CCCCN)C(=O)N[C@@H](Cc1ccccc1)C(=O)N[C@@H](C)C(=O)O)C(C)C [ANVGFVIQLQARLRGFLVRQKFA]
MIC [1]: ≥ 95 µM | MIC [2]: 1.71 µM (≈ 4.5 µg/mL) | MIC [3]: 1.71 µM (≈ 4.5 µg/mL)

CC[C@H](C)[C@H](NC(=O)[C@H](CCCCN)NC(=O)[C@H](CC(N)=O)NC(=O)[C@H](CCCCN)NC(=O)[C@H](CC(C)C)NC(=O)[C@H](Cc1ccc(O)cc1)NC(=O)[C@H](CCC(N)=O)NC(=O)[C@H](CCCN=C(N)N)NC(=O)[C@@H](NC(=O)[C@@H](NC(=O)[C@H](CCCCN)NC(=O)[C@H](CCCCN)NC(=O)[C@H](Cc1c[nH]c2ccccc12)NC(=O)[C@H](C)N)[C@@H](C)O)[C@@H](C)CC)C(=O)N[C@@H](CCCCN)C(=O)N[C@@H](CCCCN)C(=O)N[C@@H](CCCCN)C(=O)NCC(=O)N[C@@H](CCCN=C(N)N)C(=O)N[C@@H](CCCCN)C(=O)N[C@@H](C)C(=O)N[C@H](C(=O)N[C@H](C(=O)N[C@@H](C)C(=O)N[C@@H](Cc1c[nH]c2ccccc12)C(=O)O)[C@@H](C)CC)C(C)C [AWKKTIRQYLKNKIKKKGRKAVIAW]
MIC [4]: 8 µM (≈ 24.5 µg/mL) | MIC (Escherichia coli BL21): 8 µM (≈ 24.5 µg/mL) | MIC (Pseudomonas syringae): 8 µM (≈ 24.5 µg/mL) | MIC [5]: 1 µM (≈ 3.06 µg/mL) | MIC [6]: 10 µM (≈ 30.6 µg/mL)

CC[C@H](C)[C@H](NC(=O)[C@H](CCCCN)NC(=O)[C@H](CC(N)=O)NC(=O)[C@H](CCCCN)NC(=O)[C@H](CC(C)C)NC(=O)[C@H](Cc1ccc(O)cc1)NC(=O)[C@H](CCC(N)=O)NC(=O)[C@H](CCCN=C(N)N)NC(=O)[C@@H](NC(=O)[C@@H](NC(=O)[C@H](CCCCN)NC(=O)[C@H](CCCCN)NC(=O)[C@H](Cc1c[nH]c2ccccc12)NC(=O)[C@H](C)N)[C@@H](C)O)[C@@H](C)CC)C(=O)N[C@@H](CCCCN)C(=O)N[C@@H](CCCCN)C(=O)N[C@@H](CCCCN)C(=O)N[C@@H](Cc1c[nH]c2ccccc12)C(=O)N[C@@H](CCCN=C(N)N)C(=O)N[C@@H](CCCCN)C(=O)N[C@@H](C)C(=O)N[C@H](C(=O)N[C@H](C(=O)N[C@@H](C)C(=O)N[C@@H](Cc1c[nH]c2ccccc12)C(=O)O)[C@@H](C)CC)C(C)C [AWKKTIRQYLKNKIKKKWRKAVIAW]
MIC [4]: 8 µM (≈ 25.5 µg/mL) | MIC (Escherichia coli BL21): 4 µM (≈ 12.7 µg/mL) | MIC (Pseudomonas syringae): 8 µM (≈ 25.5 µg/mL) | MIC [5]: 1 µM (≈ 3.19 µg/mL)

CC[C@H](C)[C@H](N)C(=O)N[C@@H](Cc1cnc[nH]1)C(=O)N[C@@H](CCCCN)C(=O)N[C@@H](Cc1ccccc1)C(=O)N[C@@H](Cc1c[nH]c2ccccc12)C(=O)N[C@@H](CCCN=C(N)N)C(=O)N[C@@H](CCCN=C(N)N)C(=O)N[C@@H](Cc1c[nH]c2ccccc12)C(=O)N[C@@H](Cc1ccccc1)C(=O)N[C@@H](CCCCN)C(=O)N[C@@H](Cc1cnc[nH]1)C(=O)N[C@H](C(N)=O)[C@@H](C)CC [IHKFWRRWFKHI]
MIC (Escherichia coli UB1005): 8 µM (≈ 14 µg/mL) | MIC [7]: 16 µM (≈ 28.1 µg/mL) | MIC [2]: 16 µM (≈ 28.1 µg/mL) | MIC [8]: 16 µM (≈ 28.1 µg/mL) | MIC [9]: 16 µM (≈ 28.1 µg/mL) | MIC [10]: 16 µM (≈ 28.1 µg/mL) | MIC [11]: 16 µM (≈ 28.1 µg/mL) | MIC [12]: 16 µM (≈ 28.1 µg/mL) | MIC [13]: ≥ 32 µM | MIC [14]: 8 µM (≈ 14 µg/mL)

CC(C)C[C@H](NC(=O)[C@H](Cc1c[nH]c2ccccc12)NC(=O)[C@H](CC(C)C)NC(=O)[C@@H](NC(=O)[C@H](CC(C)C)NC(=O)[C@H](CCCCN)NC(=O)[C@@H](N)CCCCN)[C@@H](C)O)C(=O)N[C@H](C(=O)N[C@@H](CC(C)C)C(=O)N[C@@H](CCCCN)C(=O)N[C@@H](CCCCN)C(N)=O)[C@@H](C)O [KKLTLWLTLKK]
MIC [15]: ≥ 32 µM | MIC [7]: 8 µM (≈ 11 µg/mL) | MIC [16]: ≥ 32 µM | MIC [8]: 32 µM (≈ 43.9 µg/mL) | MIC [17]: 8 µM (≈ 11 µg/mL) | MIC (Escherichia coli K88): 2 µM (≈ 2.74 µg/mL) | MIC [18]: 16 µM (≈ 21.9 µg/mL) | MIC [19]: ≥ 128 µM | MIC [20]: ≥ 128 µM | MIC [11]: 2 µM (≈ 2.74 µg/mL) | MIC [12]: 32 µM (≈ 43.9 µg/mL) | MIC [21]: 128 µM (≈ 175 µg/mL) | MIC [22]: 8 µM (≈ 11 µg/mL) | MIC [6]: 16 µM (≈ 21.9 µg/mL) | MIC [14]: 32 µM (≈ 43.9 µg/mL)

CC[C@H](C)[C@H](NC(=O)[C@H](CCCCN)NC(=O)[C@@H](NC(=O)[C@@H](NC(=O)[C@H](CO)NC(=O)[C@H](CC(N)=O)NC(=O)[C@@H](NC(=O)[C@H](CC(N)=O)NC(=O)[C@@H](N)CCCCN)C(C)C)[C@@H](C)CC)C(C)C)C(=O)N[C@@H](CCC(N)=O)C(=O)N[C@@H](C)C(=O)N[C@@H](Cc1ccccc1)C(=O)N[C@@H](Cc1ccccc1)C(=O)N[C@@H](CCCN=C(N)N)C(=O)N[C@@H](C)C(=O)N[C@@H](CCCN=C(N)N)C(=O)N[C@@H](CCCCN)C(=O)N[C@@H](C)C(=O)N[C@@H](CCC(N)=O)C(=O)N[C@@H](CC(=O)O)C(=O)N[C@@H](CC(=O)O)C(=O)N[C@@H](Cc1ccc(O)cc1)C(=O)N[C@@H](CCCN=C(N)N)C(=O)O [KNVNSIVKIQAFFRARKAQDDYR]
MIC [1]: 30.3 µM (≈ 84 µg/mL) | MIC [2]: 3.54 µM (≈ 9.8 µg/mL) | MIC [3]: 4.7 µM (≈ 13 µg/mL)

NC(=O)[C@H](CCCN=C(N)N)NC(=O)[C@H](Cc1ccccc1)NC(=O)[C@H](Cc1ccccc1)NC(=O)[C@H](CCCN=C(N)N)NC(=O)[C@H](CCCN=C(N)N)NC(=O)[C@H](Cc1ccccc1)NC(=O)[C@H](CCCN=C(N)N)NC(=O)[C@H](CCCN=C(N)N)NC(=O)[C@H](Cc1ccccc1)NC(=O)[C@H](Cc1ccccc1)NC(=O)[C@@H](N)CCCN=C(N)N [RFFRRFRRFFR]
MIC [23]: ≥ 64 µM | MIC (Escherichia coli 1005): 8 µM (≈ 13.5 µg/mL) | MIC [24]: 4 µM (≈ 6.76 µg/mL) | MIC [8]: 4 µM (≈ 6.76 µg/mL) | MIC [25]: 2 µM (≈ 3.38 µg/mL) | MIC (Candida albicans): 5.66 µM (≈ 9.56 µg/mL) | MIC [3]: 4 µM (≈ 6.76 µg/mL) | MIC [12]: 4 µM (≈ 6.76 µg/mL) | MIC [26]: 2 µM (≈ 3.38 µg/mL) | MIC [21]: 4 µM (≈ 6.76 µg/mL) | MIC [14]: 8 µM (≈ 13.5 µg/mL)

CC(C)C[C@H](NC(=O)[C@H](CC(C)C)NC(=O)[C@H](CCCN=C(N)N)NC(=O)[C@H](CCCN=C(N)N)NC(=O)[C@H](CC(C)C)NC(=O)[C@H](CCCN=C(N)N)NC(=O)[C@H](CCCN=C(N)N)NC(=O)[C@H](CC(C)C)NC(=O)[C@H](CC(C)C)NC(=O)[C@@H](N)CCCN=C(N)N)C(=O)N[C@@H](CCCN=C(N)N)C(N)=O [RLLRRLRRLLR]
MIC [23]: 8 µM (≈ 12.2 µg/mL) | MIC (Escherichia coli 1005): 4 µM (≈ 6.08 µg/mL) | MIC [24]: 8 µM (≈ 12.2 µg/mL) | MIC [8]: 4 µM (≈ 6.08 µg/mL) | MIC [25]: 2 µM (≈ 3.04 µg/mL) | MIC (Candida albicans): 5.66 µM (≈ 8.6 µg/mL) | MIC [3]: 8 µM (≈ 12.2 µg/mL) | MIC [12]: 8 µM (≈ 12.2 µg/mL) | MIC [26]: 4 µM (≈ 6.08 µg/mL) | MIC [21]: 8 µM (≈ 12.2 µg/mL) | MIC [14]: 4 µM (≈ 6.08 µg/mL)
